Here are results for 8 compounds from PubChem BioAssay AID1259407 (Chemical Carcinogenesis Research Information System (CCRIS), 2018).

The source made the active and inactive calls. How the calls were made is not given here.

The subject of this data set is CCRIS mutagenicity, Ames/micronucleus/aberration tests. Put plainly: CCRIS mutagenicity studies.
Where [1] appears, read: Test System: AMES SALMONELLA TYPHIMURIUM, Strain/Indicator: TA98, Metabolic Activation: NONE, Method: STANDARD PLATE.
The mark [2] stands for this setting: Test System: AMES SALMONELLA TYPHIMURIUM, Strain/Indicator: TA100, Metabolic Activation: NONE, Method: STANDARD PLATE.
Setting [3] is: Test System: AMES SALMONELLA TYPHIMURIUM, Strain/Indicator: TA100, Metabolic Activation: RAT LIVER S-9, AROCLOR 1254, Method: STANDARD PLATE.
The mark [4] stands for this setting: Test System: AMES SALMONELLA TYPHIMURIUM, Strain/Indicator: TA102, Metabolic Activation: NONE, Method: STANDARD PLATE.
Where [5] appears, read: Test System: AMES SALMONELLA TYPHIMURIUM, Strain/Indicator: TA102, Metabolic Activation: RAT LIVER S-9, AROCLOR 1254, Method: STANDARD PLATE.
Setting [6] is: Test System: AMES SALMONELLA TYPHIMURIUM, Strain/Indicator: TA1535, Metabolic Activation: NONE, Method: STANDARD PLATE.
[7] abbreviates: Test System: AMES SALMONELLA TYPHIMURIUM, Strain/Indicator: TA1537, Metabolic Activation: NONE, Method: STANDARD PLATE.
Setting [8] is: Test System: AMES SALMONELLA TYPHIMURIUM, Strain/Indicator: TA1538, Metabolic Activation: NONE, Method: STANDARD PLATE.
Setting [9] is: Test System: AMES SALMONELLA TYPHIMURIUM, Strain/Indicator: TA98, Metabolic Activation: RAT, LIVER, S-9, AROCLOR 1254, Method: STANDARD PLATE.
[10] abbreviates: Test System: AMES SALMONELLA TYPHIMURIUM, Strain/Indicator: TA100, Metabolic Activation: NONE, Method: PREINCUBATION

In the case of `COC1=CC(=O)c2c(ncc3c2[nH]c2ccccc23)C1=O`, the mutagenic call is, setting by setting: (Test System: AMES SALMONELLA TYPHIMURIUM, Strain/Indicator: TA97A, Metabolic Activation: NONE, Method: STANDARD PLATE) “active; positive”; (Test System: AMES SALMONELLA TYPHIMURIUM, Strain/Indicator: TA97A, Metabolic Activation: RAT LIVER S-9, AROCLOR 1254, Method: STANDARD PLATE) “active; positive”; under setting [1], “active; positive”; (Test System: AMES SALMONELLA TYPHIMURIUM, Strain/Indicator: TA98, Metabolic Activation: RAT LIVER S-9, AROCLOR 1254, Method: STANDARD PLATE) “active; positive”; under setting [2], “active; positive”; under setting [3], “active; positive”. The mutagenic call reads like this: under setting [4], “active; positive”; under setting [5], “active; positive”.
`CC(C)(CO)[C@@H](O)C(=O)NCCC(=O)O`: the mutagenic call (Test System: AMES SALMONELLA TYPHIMURIUM, Strain/Indicator: TA97, Metabolic Activation: NONE, Method: PREINCUBATION) was “inactive; negative”; the mutagenic call (Test System: AMES SALMONELLA TYPHIMURIUM, Strain/Indicator: TA97, Metabolic Activation: RAT, LIVER, S-9, AROCLOR 1254, Method: PREINCUBATION) is “inactive; negative”; the mutagenic call (Test System: AMES SALMONELLA TYPHIMURIUM, Strain/Indicator: TA97A, Metabolic Activation: NONE, Method: PREINCUBATION) is “inactive; negative”; the mutagenic call (Test System: AMES SALMONELLA TYPHIMURIUM, Strain/Indicator: TA97A, Metabolic Activation: RAT, LIVER, S-9, AROCLOR 1254, Method: PREINCUBATION) was “inactive; negative”; the mutagenic call (Test System: AMES SALMONELLA TYPHIMURIUM, Strain/Indicator: TA102, Metabolic Activation: NONE, Method: PREINCUBATION) was “inactive; negative”; the mutagenic call (Test System: AMES SALMONELLA TYPHIMURIUM, Strain/Indicator: TA102, Metabolic Activation: RAT, LIVER, S-9, AROCLOR 1254, Method: PREINCUBATION) is “inactive; negative”.
In the case of `COc1nsc2c(N)cccc12`, under “Test System: AMES SALMONELLA TYPHIMURIUM, Strain/Indicator: TA98, Metabolic Activation: S-9, Method: STANDARD PLATE”, the mutagenic call is “active; positive”.
`CC1COCc2cc3c(cc21)C(C)(C)C(C)C3(C)C` (stereo not drawn): the mutagenic call reads like this: (Test System: AMES SALMONELLA TYPHIMURIUM, Strain/Indicator: TA97, Metabolic Activation: NONE, Method: STANDARD PLATE) “inactive; negative”; (Test System: AMES SALMONELLA TYPHIMURIUM, Strain/Indicator: TA97, Metabolic Activation: RAT LIVER S-9, AROCLOR 1254, Method: STANDARD PLATE) “inactive; negative”; under setting [1], “inactive; negative”; (Test System: AMES SALMONELLA TYPHIMURIUM, Strain/Indicator: TA98, Metabolic Activation: RAT LIVER S-9,AROCLOR 1254, Method: STANDARD PLATE) “inactive; negative”; under setting [2], “inactive; negative”; under setting [3], “inactive; negative”. In addition, the mutagenic call was “inactive; negative” under setting [4]; “inactive; negative” under setting [5]; “inactive; negative” under setting [6]; “inactive; negative” (Test System: AMES SALMONELLA TYPHIMURIUM, Strain/Indicator: TA1535, Metabolic Activation: RAT LIVER S-9, AROCLOR 1254, Method: STANDARD PLATE); “inactive; negative” under setting [7]; “inactive; negative” (Test System: AMES SALMONELLA TYPHIMURIUM, Strain/Indicator: TA1537, Metabolic Activation: RAT LIVER S-9, AROCLOR 1254, Method: STANDARD PLATE). Further, the mutagenic call runs as follows: under setting [8], “inactive; negative”; (Test System: AMES SALMONELLA TYPHIMURIUM, Strain/Indicator: TA1538, Metabolic Activation: RAT LIVER S-9, AROCLOR 1254, Method: STANDARD PLATE) “inactive; negative”; (Test System: ESCHERICHIA COLI, Strain/Indicator: WP2 UVR A, Metabolic Activation: NONE, Method: STANDARD PLATE) “inactive; negative”; (Test System: ESCHERICHIA COLI, Strain/Indicator: WP2 UVR A, Metabolic Activation: RAT LIVER S-9, AROCLOR 1254, Method: STANDARD PLATE) “inactive; negative”; (Test System: UDS RAT HEPATOCYTES, Metabolic Activation: NONE, Method: NET NUCLEAR GRAIN COUNT) “inactive; negative”.
Consider `CCCCCCCCCCCCCC(=O)ON(C(=O)CCCCCCCCCCCCC)c1ccc2c(c1)Cc1ccccc1-2`, for which the mutagenic call (Test System: UDS HUMAN FIBROBLASTS, Strain/Indicator: THY INCORP (NON-S-PHASE), Metabolic Activation: NONE, Method: AUTORADIOGRAPHY) was “active; positive”.
Regarding `COc1cccc2c1C(=O)c1c(O)c3c(c(O)c1C2=O)C[C@@](O)(C(=O)CO)C[C@@H]3O`, the mutagenic call under setting [1] is “active; positive”, the mutagenic call under setting [9] is “active; positive”, the mutagenic call under setting [2] was “active; positive” and the mutagenic call under setting [8] was “active; positive”.
`CCOc1ccc(N(O)C(=O)CC(C)O)cc1` (stereo not drawn): the mutagenic call by setting is: (Test System: AMES SALMONELLA TYPHIMURIUM, Strain/Indicator: TA100, Metabolic Activation: HAMSTER, LIVER, S-9, KANECHLOR 400 (WITHOUT NADPH GENERATING SYSTEM), Method: PREINCUBATION) “active; positive”; under setting [10], “inactive; negative”.
Consider `O=c1cn[nH]c(=O)[nH]1`, for which the mutagenic call reads like this: (Test System: AMES SALMONELLA TYPHIMURIUM, Strain/Indicator: TA98, Metabolic Activation: MAIZE SEEDLING, S-14, Method: PREINCUBATION) “inactive; negative”; (Test System: AMES SALMONELLA TYPHIMURIUM, Strain/Indicator: TA98, Metabolic Activation: MOUSE, LIVER, S-9, Method: PREINCUBATION) “inactive; negative”; (Test System: AMES SALMONELLA TYPHIMURIUM, Strain/Indicator: TA98, Metabolic Activation: NONE, Method: PREINCUBATION) “inactive; negative”; under setting [1], “inactive; negative”; under setting [9], “active; positive”; (Test System: AMES SALMONELLA TYPHIMURIUM, Strain/Indicator: TA100, Metabolic Activation: MAIZE SEEDLING, S-14, Method: PREINCUBATION) “inactive; negative”. The mutagenic call is, setting by setting: (Test System: AMES SALMONELLA TYPHIMURIUM, Strain/Indicator: TA100, Metabolic Activation: MOUSE, LIVER, S-9, Method: PREINCUBATION) “inactive; negative”; under setting [10], “inactive; negative”; under setting [2], “inactive; negative”; (Test System: AMES SALMONELLA TYPHIMURIUM, Strain/Indicator: TA100, Metabolic Activation: RAT, LIVER, S-9, AROCLOR 1254, Method: STANDARD PLATE) “inactive; negative”; (Test System: AMES SALMONELLA TYPHIMURIUM, Strain/Indicator: TA1535, Metabolic Activation: NONE, Method: PREINCUBATION) “inactive; negative”; under setting [6], “inactive; negative”. The mutagenic call is “inactive; negative” (Test System: AMES SALMONELLA TYPHIMURIUM, Strain/Indicator: TA1535, Metabolic Activation: RAT, LIVER, S-9, AROCLOR 1254, Method: STANDARD PLATE); “inactive; negative” (Test System: AMES SALMONELLA TYPHIMURIUM, Strain/Indicator: TA1537, Metabolic Activation: NONE, Method: PREINCUBATION); “inactive; negative” under setting [7]; “inactive; negative” (Test System: AMES SALMONELLA TYPHIMURIUM, Strain/Indicator: TA1537, Metabolic Activation: RAT, LIVER, S-9, AROCLOR 1254, Method: STANDARD PLATE); “inactive; negative” (Test System: AMES SALMONELLA TYPHIMURIUM, Strain/Indicator: TA1538, Metabolic Activation: NONE, Method: PREINCUBATION); “inactive; negative” under setting [8]. Also, the mutagenic call (Test System: AMES SALMONELLA TYPHIMURIUM, Strain/Indicator: TA1538, Metabolic Activation: RAT, LIVER, S-9, AROCLOR 1254, Method: STANDARD PLATE) is “active; positive”.
